ChEMBL document CHEMBL1201862, “PubChem BioAssay data set” (2004)
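Following 48 hours of exposure in 96-well plates, responses at five concentrations were used to interpolate endpoints linearly. GI50 = concentration required for 50% inhibition of growth.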 The source made the active and inactive calls. Rule as the data show it: active = GI50 up to about 1.1 µM and inactive = higher.

Experiments:
Assay in all cases: DTP human tumour cell line panel, 48 h
A498 = test system: A498
HCC 2998 = test system: HCC 2998
HCT-116 = test system: HCT-116
HL-60 = test system: HL-60
HOP-92 = test system: HOP-92
Hs-578T = test system: Hs-578T
IGROV-1 = test system: IGROV-1
MDA-MB-435 = test system: MDA-MB-435
Malme-3M = test system: Malme-3M
NCI-H226 = test system: NCI-H226
NCI-H23 = test system: NCI-H23
NCI-H460 = test system: NCI-H460
OVCAR-3 = test system: OVCAR-3
RPMI-8226 = test system: RPMI-8226
RXF 393 = test system: RXF 393
SNB-75 = test system: SNB-75
TK-10 = test system: TK-10
UACC-62 = test system: UACC-62
UO-31 = test system: UO-31
SF-539 = test system: SF-539

Measured: GI50

O=C1C(c2c(O)[nH]c3ccccc23)=Nc2ccc(Br)cc21
inactive: A498 4.39 µM | HCC 2998 25.6 µM | HCT-116 24.3 µM | HL-60 23.7 µM | HOP-92 17.6 µM | Hs-578T 19.5 µM | IGROV-1 3.37 µM | MDA-MB-435 61.8 µM | Malme-3M > 100 µM | NCI-H226 18.5 µM | NCI-H23 51.8 µM | NCI-H460 70 µM | OVCAR-3 99.5 µM | RPMI-8226 75.7 µM | RXF 393 12.9 µM | SNB-75 14.6 µM | TK-10 23 µM | UACC-62 17.6 µM | UO-31 24.6 µM

COc1ccc(OC)c2c(/C=C/c3ccc(N(C)C)cc3)ccnc12
inactive: A498 > 10 µM | HCC 2998 > 10 µM | HCT-116 3.53 µM | HL-60 1.91 µM | HOP-92 5.87 µM | Hs-578T 8.15 µM | IGROV-1 > 10 µM | MDA-MB-435 5.21 µM | Malme-3M 4.51 µM | NCI-H226 > 10 µM | NCI-H23 > 10 µM | NCI-H460 9.68 µM | OVCAR-3 > 10 µM | RXF 393 > 10 µM | SF-539 2.77 µM | SNB-75 6.53 µM | TK-10 5.58 µM | UACC-62 3.01 µM | UO-31 4.67 µM

O=C1Cc2cc3ccccc3nc2-c2ccccc2N1
inactive: A498 61.5 µM | HCC 2998 31.4 µM | HCT-116 23.9 µM | HL-60 > 100 µM | HOP-92 41.7 µM | Hs-578T 28.8 µM | IGROV-1 > 100 µM | MDA-MB-435 > 100 µM | Malme-3M > 100 µM | NCI-H226 > 100 µM | NCI-H23 > 100 µM | NCI-H460 63.7 µM | OVCAR-3 73.1 µM | RXF 393 70.5 µM | SF-539 69.7 µM | SNB-75 24.7 µM | TK-10 27.7 µM | UACC-62 > 100 µM | UO-31 35.4 µM

COC(=O)C1Cc2c([nH]c3ccccc23)-c2[nH]c3ccccc3c2CC(NC(C)=O)C(=O)NCC(=O)NCC(=O)N1 (stereo unspecified)
inactive: A498 > 100 µM | HCT-116 > 100 µM | HL-60 > 100 µM | HOP-92 > 100 µM | Hs-578T > 100 µM | IGROV-1 > 100 µM | MDA-MB-435 > 100 µM | Malme-3M > 100 µM | NCI-H226 > 100 µM | NCI-H23 > 100 µM | NCI-H460 > 100 µM | OVCAR-3 > 100 µM | RPMI-8226 > 100 µM | RXF 393 > 100 µM | SF-539 > 100 µM | SNB-75 > 100 µM | TK-10 > 100 µM | UACC-62 > 100 µM | UO-31 > 100 µM

O=C(O)CCSC1=NCCN1
inactive: A498 > 100 µM | HCC 2998 > 100 µM | HCT-116 > 100 µM | HL-60 > 100 µM | HOP-92 > 100 µM | Hs-578T > 100 µM | IGROV-1 > 100 µM | MDA-MB-435 > 100 µM | Malme-3M > 100 µM | NCI-H226 > 100 µM | NCI-H23 > 100 µM | NCI-H460 > 100 µM | OVCAR-3 > 100 µM | RPMI-8226 > 100 µM | RXF 393 > 100 µM | SNB-75 > 100 µM | TK-10 > 100 µM | UACC-62 > 100 µM | UO-31 > 100 µM

Oc1c(Cl)c(Cl)c(O)c2c1CCCC2
inactive: A498 19.1 µM | HCC 2998 14.3 µM | HCT-116 1.51 µM | HOP-92 1.85 µM | Hs-578T 14.6 µM | MDA-MB-435 16.4 µM | Malme-3M 2.84 µM | NCI-H226 1.88 µM | NCI-H23 18.4 µM | NCI-H460 15.1 µM | RPMI-8226 2.72 µM | RXF 393 10.6 µM | SF-539 8.69 µM | TK-10 3.37 µM | UACC-62 13.4 µM | UO-31 2.36 µM

O=C1C(Cl)=C(N2CCOCC2)C(=O)c2c(O)ccc(O)c21
inactive: A498 1.63 µM | HCC 2998 1.67 µM | NCI-H226 1.83 µM | RPMI-8226 1.84 µM
active: HCT-116 0.213 µM | HOP-92 0.291 µM | Hs-578T 0.859 µM | IGROV-1 0.612 µM | MDA-MB-435 0.204 µM | Malme-3M 0.223 µM | NCI-H23 0.255 µM | NCI-H460 0.881 µM | OVCAR-3 0.385 µM | RXF 393 0.222 µM | SF-539 0.486 µM | SNB-75 0.667 µM | TK-10 0.638 µM | UACC-62 0.729 µM | UO-31 0.351 µM

Cc1n[nH]c(=S)n1/N=C/c1ccc(-c2ccc(Cl)cc2)o1
inactive: A498 > 100 µM | HCT-116 > 100 µM | HL-60 44.2 µM | HOP-92 69 µM | Hs-578T 37.5 µM | IGROV-1 > 100 µM | MDA-MB-435 > 100 µM | NCI-H226 > 100 µM | NCI-H23 39.6 µM | NCI-H460 > 100 µM | OVCAR-3 > 100 µM | RPMI-8226 > 100 µM | RXF 393 43 µM | SF-539 77.1 µM | SNB-75 31.9 µM | TK-10 83.4 µM | UO-31 > 100 µM

O=C1Nc2ccc(S(=O)(=O)NCCO)cc2/C1=C1/Nc2ccccc2C1=O
inactive: A498 2.53 µM | HCC 2998 53 µM | HCT-116 3.13 µM | HOP-92 13.8 µM | Hs-578T 6.73 µM | MDA-MB-435 > 100 µM | Malme-3M 40.8 µM | NCI-H226 > 100 µM | NCI-H23 28.4 µM | NCI-H460 30.3 µM | OVCAR-3 4.06 µM | RPMI-8226 92.5 µM | RXF 393 4.36 µM | SNB-75 1.97 µM | TK-10 18 µM | UACC-62 7.18 µM | UO-31 52.5 µM
active: IGROV-1 1.04 µM

Cc1oc2nc(N(C)C)nc(NN)c2c1C
inactive: A498 > 100 µM | HCC 2998 > 100 µM | HCT-116 > 100 µM | HL-60 > 100 µM | HOP-92 > 100 µM | Hs-578T > 100 µM | IGROV-1 > 100 µM | MDA-MB-435 > 100 µM | NCI-H226 > 100 µM | NCI-H23 > 100 µM | NCI-H460 > 100 µM | OVCAR-3 > 100 µM | RPMI-8226 > 100 µM | RXF 393 > 100 µM | SF-539 > 100 µM | SNB-75 > 100 µM | TK-10 > 100 µM | UACC-62 > 100 µM | UO-31 61.7 µM

CCOC(=O)c1cc(C2CCN(Cc3ccccc3)C2=O)c(C(=O)/C=C(/C)N)[nH]1 (stereo unspecified)
inactive: A498 > 100 µM | HCC 2998 > 100 µM | HCT-116 90.6 µM | HOP-92 25.8 µM | Hs-578T 98.4 µM | IGROV-1 67.5 µM | MDA-MB-435 > 100 µM | Malme-3M > 100 µM | NCI-H23 > 100 µM | NCI-H460 85.5 µM | OVCAR-3 81.3 µM | RPMI-8226 > 100 µM | RXF 393 > 100 µM | SNB-75 > 100 µM | TK-10 > 100 µM | UACC-62 > 100 µM | UO-31 91.2 µM

C=CCc1cccc2cc(C(=O)Nc3ccccn3)c(=N)oc12
inactive: A498 > 100 µM | HCC 2998 > 100 µM | HCT-116 56.6 µM | HL-60 > 100 µM | HOP-92 > 100 µM | Hs-578T > 100 µM | IGROV-1 > 100 µM | MDA-MB-435 > 100 µM | NCI-H226 > 100 µM | NCI-H23 > 100 µM | NCI-H460 > 100 µM | OVCAR-3 > 100 µM | RPMI-8226 > 100 µM | RXF 393 > 100 µM | SF-539 92.5 µM | SNB-75 > 100 µM | UACC-62 > 100 µM

O=C1OC(c2ccccc2)=NC1c1ccccc1 (stereo unspecified)
inactive: A498 > 100 µM | HCC 2998 > 100 µM | HCT-116 > 100 µM | HL-60 > 100 µM | HOP-92 > 100 µM | Hs-578T > 100 µM | IGROV-1 > 100 µM | MDA-MB-435 > 100 µM | NCI-H226 > 100 µM | NCI-H23 > 100 µM | NCI-H460 > 100 µM | OVCAR-3 > 100 µM | RPMI-8226 > 100 µM | RXF 393 > 100 µM | SF-539 > 100 µM | SNB-75 > 100 µM | TK-10 > 100 µM | UACC-62 > 100 µM | UO-31 > 100 µM

COc1ccc2c(CC(=O)O)cc(=O)oc2c1
inactive: A498 > 100 µM | HCC 2998 > 100 µM | HCT-116 > 100 µM | HL-60 > 100 µM | HOP-92 86.1 µM | Hs-578T > 100 µM | IGROV-1 > 100 µM | MDA-MB-435 > 100 µM | Malme-3M 54.8 µM | NCI-H226 > 100 µM | NCI-H23 > 100 µM | NCI-H460 > 100 µM | OVCAR-3 > 100 µM | RPMI-8226 > 100 µM | RXF 393 > 100 µM | SF-539 > 100 µM | TK-10 > 100 µM | UACC-62 > 100 µM | UO-31 > 100 µM

O=C(CCc1cc(O)cc(O)c1)NCCc1cc(O)cc(O)c1
inactive: A498 > 100 µM | HCC 2998 > 100 µM | HCT-116 > 100 µM | HOP-92 > 100 µM | Hs-578T > 100 µM | IGROV-1 > 100 µM | MDA-MB-435 > 100 µM | NCI-H226 > 100 µM | NCI-H23 > 100 µM | NCI-H460 > 100 µM | OVCAR-3 > 100 µM | RPMI-8226 > 100 µM | RXF 393 > 100 µM | SF-539 > 100 µM | SNB-75 > 100 µM | TK-10 > 100 µM | UACC-62 > 100 µM | UO-31 > 100 µM

C/C(=N\NC(=O)c1ccccc1O)c1cccc(/C(C)=N/NC(=O)c2ccccc2O)n1
active: HCC 2998 1.02 µM
inactive: A498 37.8 µM | HOP-92 10.9 µM | Hs-578T > 65.2 µM | MDA-MB-435 41.8 µM | Malme-3M 10.6 µM | NCI-H460 6.71 µM | RPMI-8226 14.7 µM | RXF 393 8.55 µM | SNB-75 12.1 µM | TK-10 18.6 µM | UACC-62 2.58 µM
